According to patent US12194039B2, “Methods of treating heart failure by administering omecamtiv mecarbil” (Cytokinetics, Inc., priority 2020, dated 2025):
Read-outs that look alike come from different tables or passages of the source.

What was measured:
[1] = test system: patients with heart failure with reduced ejection fraction
Source text: The primary outcome was a composite of the time to a heart failure event or cardiovascular death, whichever occurred first. A heart failure event was defined as an urgent clinic visit, emergency department visit or hospitalization for subjectively and objectively worsening heart failure leading to treatment intensification beyond changed oral diuretic therapy. Secondary outcomes were: the time to cardiovascular death; change in KCCQ Total Symptom Score (TSS) from baseline to Week 24 (scale from 0 to 100; higher score indicates fewer symptoms); time to first heart failure hospitalization; and time to all-cause death. All deaths, HF events, major cardiac ischemic events (myocardial infarction/unstable angina hospitalization, and coronary revascularization), and strokes were adjudicated by a blinded external Clinical Events Committee (Duke Clinical Research Institute) using standardized definitions.

[2] = test system: CYP3A4; experiment: Clinical studies and physiologically based pharmacokinetic modeling of OM as perpetrator; type: in vivo, human; conditions: clinical studies and PBPK modeling; result in words
Source text: OM may be administered with drugs that are substrates of CYP3A4, CYP2C8, P-gp or BCRP.

Compound: COC(=O)N1CCN(Cc2cccc(NC(=O)Nc3ccc(C)nc3)c2F)CC1 [omecamtiv mecarbil]
- Reduction in fatal stroke ([1]; all patients randomized): 42%
- Reduction in the risk of first fatal or non-fatal stroke ([1]; all patients randomized): 35%
- Adjudicated type of first stroke event: Hemorrhagic, % ([1]; in vivo): 0.1%
- Adjudicated type of first stroke event: Ischemic (Non-hemorrhagic), % ([1]; in vivo): 1.6%
- Adjudicated type of first stroke event: Undetermined, % ([1]; in vivo): 0.1%
- Adjudicated type of first stroke event: Ischemic with hemorrhagic transformation, % ([1]; n = 4110): 0.1%
- New onset atrial fibrillation/flutter, hazard ratio ([1]; no AF/F at screening): 0.70
- New onset atrial fibrillation/flutter, hazard ratio ([1]; no history of AF/F): 0.60
- Non-fatal and fatal stroke, hazard ratio ([1]; no history of atrial fibrillation): 0.81
- Non-fatal and fatal stroke, hazard ratio ([1]; no history of stroke): 0.78
- Primary endpoint, hazard ratio ([1]; patients with a history of stroke, vs placebo): 0.86
- Primary endpoint, hazard ratio ([1]; patients with no stroke, vs placebo): 0.93
- Time to first stroke event ([1]; result in words): significantly reduced
- Fatal stroke, hazard ratio ([1]; vs placebo): 0.56
- Non-fatal and fatal stroke, hazard ratio ([1]; with history of atrial fibrillation): 0.49
- Non-fatal and fatal stroke, hazard ratio ([1]; with history of stroke): 0.23
- Induction of CYP3A4 [2]: weak inducer
